Reference: US7598261B2, “Spirocyclic heterocyclic derivatives and methods of their use” (Adolor Corporation, priority 2005, dated 2009)

Key:
[1] = target: T1, cloned human δ opioid receptor (Homo sapiens, UniProt P41143); assay: [3H]diprenorphine receptor binding, δ opioid receptor; conditions: inhibition of [3H]diprenorphine binding, read-out: affinity (Ki value), delta opioid receptor
T1 construct: expressed in transfected cells; host or cells: CHO cells (membrane preparations)
Method: (§1) The potencies of the compounds listed in Table 2 were determined by testing the ability of a range of concentrations of each compound to inhibit the binding of the non-selective opioid antagonist, [^3H]diprenorphine, to the cloned human μ, κ, and δ opioid receptors, expressed in separate cell lines. IC50 values were obtained by nonlinear analysis of the data using GraphPad Prism version 3.00 for Windows (GraphPad Software, San Diego). Ki values were obtained by Cheng-Prusoff corrections of IC50 values.
(§2) The receptor binding method (DeHaven and DeHaven-Hudkins, 1998) was a modification of the method of Raynor et al. (1994). After dilution in buffer A and homogenization as before, membrane proteins (10-80 μg) in 250 μL were added to mixtures containing test compound and [^3H]diprenorphine (0.5 to 1.0 nM, 40,000 to 50,000 dpm) in 250 μL of buffer A in 96-well deep-well polystyrene titer plates (Beckman). […] The filters were rinsed 4 times with 1 mL of cold 50 mM Tris HCl, pH 7.8 and radioactivity remaining on the filters determined by scintillation spectroscopy. Nonspecific binding was determined by the minimum values of the titration curves and was confirmed by separate assay wells containing 10 μM naloxone. Ki values were determined by Cheng-Prusoff corrections of IC50 values derived from nonlinear regression fits of 12 point titration curves using GraphPad Prism® version 3.00 for Windows (GraphPad Software, San Diego, Calif.).
To determine the equilibrium dissociation constant for the inhibitors (Ki), radioligand bound (cpm) in the presence of various concentrations of test compounds was measured. The concentration to give half-maximal inhibition (EC50) of radioligand binding was determined from a best nonlinear regression fit to the following equation, […]
The potencies of the compounds were determined by testing the ability of a range of concentrations of each compound to inhibit the binding of the non-selective opioid antagonist, [^3H]diprenorphine, to the cloned human μ, κ, and δ opioid receptors, expressed in separate cell lines. […]

[2] = target: T1, cloned human δ opioid receptor; assay: Receptor-mediated [35S]GTPγS binding (agonist potency); assay type: biochemical; conditions: stimulation of [35S]GTPγS binding, membranes with cloned human δ opioid receptor; read-out: in vitro δ agonist activity (EC50)
Method: The potency and efficacy of compounds at each of the receptors are assessed by modifications of the methods of Selley et al., 1997 and Traynor and Nahorski, 1995 using receptor-mediated [^35S]GTPγS binding in the same membrane preparations used to measure receptor binding. Assays are carried out in 96-well FlashPlates® (Perkin Elmer Life Sciences, Inc, Boston, Mass.). Membranes prepared from CHO cells expressing the appropriate receptor (50-100 μg of protein) are added to assay mixtures containing agonist with or without antagonists, 100 pM [^35S]GTPγS (approx. 100,000 dpm), 3.0 μM GDP, 75 mM NaCl, 15 mM MgCl2, 1.0 mM ethylene glycol-bis(β-aminoethyl ether)-N,N,N′,N′-tetracetic acid, 1.1 mM dithiothreitol, 10 μg/mL leupeptin, 10 μg/mL pepstatin A, 200 μg/mL bacitracin, and 0.5 μg/mL aprotinin in 50 mM Tris-HCl buffer, pH 7.8. After incubation at room temperature for one hour, the plates are sealed, centrifuged at 800×g in a swinging bucket rotor for 5 min and bound radioactivity determined with a TopCount microplate scintillation counter (Packard Instrument Co., Meriden, Conn.).
EC50 values for agonists are determined from nonlinear regression fits of 8- or 12-point titration curves to the 4-parameter equation for a sigmoidal dose-response with a slope factor of 1.0 using GraphPad Prism® version 3.00 for Windows (GraphPad Software, San Diego, Calif.).
The potencies of the compounds were determined by testing the ability of a range of concentrations of each compound to inhibit the binding of the non-selective opioid antagonist, [^3H]diprenorphine, to the cloned human μ, κ, and δ opioid receptors, expressed in separate cell lines. […] These compounds display high selectivity δ/κ and δ/μ (at least 10-fold). The potencies of the agonists were assessed by their abilities to stimulate [^35S]GTPγS binding to membranes containing the cloned human δ opioid receptors.

[3] = target: T2, cloned human κ opioid receptor (Homo sapiens, UniProt P41145); assay: [3H]diprenorphine receptor binding, κ opioid receptor; conditions: inhibition of [3H]diprenorphine binding, read-out: affinity (Ki value), kappa opioid receptor
T2 construct: expressed in transfected cells; host or cells: CHO cells (membrane preparations)
T2 sequence (P41145 whole entry): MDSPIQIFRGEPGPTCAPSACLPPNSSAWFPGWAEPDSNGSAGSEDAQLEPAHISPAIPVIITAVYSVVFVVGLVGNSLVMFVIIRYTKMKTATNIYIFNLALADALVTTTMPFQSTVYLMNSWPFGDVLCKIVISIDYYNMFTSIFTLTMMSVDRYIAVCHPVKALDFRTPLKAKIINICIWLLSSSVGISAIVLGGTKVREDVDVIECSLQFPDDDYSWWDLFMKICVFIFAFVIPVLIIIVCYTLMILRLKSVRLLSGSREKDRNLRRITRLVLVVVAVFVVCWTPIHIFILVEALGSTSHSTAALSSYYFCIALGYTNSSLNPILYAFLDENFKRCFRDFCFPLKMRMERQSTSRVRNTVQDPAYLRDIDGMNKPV
Method: as §1
as §2, with “(1994).” for “(1994). After dilution in buffer A and homogenization as before, membrane proteins (10-80 μg) in 250 μL were added to mixtures containing test compound and [^3H]diprenorphine (0.5 to 1.0 nM, 40,000 to 50,000 dpm) in 250 μL of buffer A in 96-well deep-well polystyrene titer plates (Beckman).”
(§3) To determine the equilibrium dissociation constant for the inhibitors (Ki), radioligand bound (cpm) in the presence of various concentrations of test compounds was measured. […]

[4] = target: T3, cloned human μ opioid receptor (Homo sapiens, UniProt P35372); assay: [3H]diprenorphine receptor binding, μ opioid receptor; conditions: inhibition of [3H]diprenorphine binding, read-out: affinity (Ki value), mu opioid receptor
T3 construct: expressed in transfected cells; host or cells: CHO cells (membrane preparations)
T3 sequence (P35372 whole entry): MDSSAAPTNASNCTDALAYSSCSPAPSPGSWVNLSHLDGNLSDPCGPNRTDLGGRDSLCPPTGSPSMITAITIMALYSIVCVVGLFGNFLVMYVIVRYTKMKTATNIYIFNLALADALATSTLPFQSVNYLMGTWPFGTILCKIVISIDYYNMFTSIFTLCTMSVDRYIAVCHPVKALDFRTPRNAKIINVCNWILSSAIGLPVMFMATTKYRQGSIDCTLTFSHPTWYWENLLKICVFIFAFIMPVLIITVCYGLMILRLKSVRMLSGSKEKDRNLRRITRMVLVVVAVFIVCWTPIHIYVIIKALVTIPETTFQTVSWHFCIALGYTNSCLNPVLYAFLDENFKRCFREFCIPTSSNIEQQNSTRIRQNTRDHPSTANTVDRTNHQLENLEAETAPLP
Method: as §1
as §2, with “(1994).” for “(1994). After dilution in buffer A and homogenization as before, membrane proteins (10-80 μg) in 250 μL were added to mixtures containing test compound and [^3H]diprenorphine (0.5 to 1.0 nM, 40,000 to 50,000 dpm) in 250 μL of buffer A in 96-well deep-well polystyrene titer plates (Beckman).”
as §3

T1 sequence (P41143 whole entry): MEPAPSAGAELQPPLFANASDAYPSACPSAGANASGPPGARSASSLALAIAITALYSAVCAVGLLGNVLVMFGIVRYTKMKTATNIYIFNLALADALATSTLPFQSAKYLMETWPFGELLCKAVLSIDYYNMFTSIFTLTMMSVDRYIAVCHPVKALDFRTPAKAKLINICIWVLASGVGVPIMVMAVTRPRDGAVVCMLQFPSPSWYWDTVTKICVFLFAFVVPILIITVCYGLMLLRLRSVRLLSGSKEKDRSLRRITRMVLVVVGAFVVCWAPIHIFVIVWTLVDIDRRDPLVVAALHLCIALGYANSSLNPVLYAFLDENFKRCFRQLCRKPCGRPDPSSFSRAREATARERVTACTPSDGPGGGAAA

Row | SMILES | Ki [1] [nM] | EC50 [2] [nM] | Ki [3] [nM] | Ki [4] [nM]
1 | CCN(CC)C(=O)c1ccc(C2CC3(CCNCC3)Oc3ccc(F)cc32)c(O)c1 (single isomer, unassigned) [61A] | 0.59 | 16.8 |  | 
2 | CCN(CC)C(=O)c1ccc(C2CC3(CCNCC3)Oc3ccc(F)cc32)c(O)c1 (single isomer, unassigned) [61B] | 75 | 1280 |  | 
3 | CC(=O)c1ccc(C2=CC3(CCNCC3)Oc3ccccc32)cc1 [33M] | 9.7 | 287 | > 1000 | > 1000
